From US20190125712A1, “COMPOUND FOR ENHANCING ACTIVITY OF ANTIBIOTIC COMPOSITIONS AND OVERCOMING DRUG RESISTANCE” (SHOOLINI UNIVERSITY OF BIOTECHNOLOGY AND MANAGEMENT SCIENCES, priority 2015, published 2019)
Converted amounts (≈) assume the structure as drawn. Like-named read-outs stand apart in the source and are kept apart here. Peptide text beside a SMILES is read from it. * marks the point of attachment. βNA = c1ccc2cc(N*)ccc2c1

Tests used:
[1] = tested on: Pseudomonas aeruginosa; conditions: against Pseudomonas aeruginosa; Barrett J F (2001); cited from earlier work
[2] = tested on: K. pneumonia 1740 knockout (Drug resistant); type: cell-based, Klebsiella pneumonia; conditions: for MIC Antibiotic + ethyl gallate: combination with ethyl gallate; for MIC: group C: antibiotic + Ethyl gallate 1000 μg/ml, strain 1740 knockout; for Fold decrease in antibiotic concentration: on addition of ethyl gallate
Method: (§1) This was carried out to assess the potential of the compound to enhance antimicrobial activity and overcome antibacterial resistance.
(§2) The resistant & sensitive control strains of K. pneumonia were procured from Dr. Enrique Llobet, CIBERES, Bunyola, Spain, Dr. Mazzariol of Verona University, Italy and one sensitive control strain were procured from IMTECH, Chandigarh (Table-2). Pseudomonas aeruginosa control cultures (Sensitive & Resistant) were procured from Dr. Thilo Kohler, University of Geneva, and Department of Microbiology and Molecular Medicine Geneve, Switzerland and one sensitive control strain were procured from IMTECH, Chandigarh (Table-3).

[3] = tested on: K. pneumonia Strain 52145 (Drug sensitive or control); assay: MIC, ethyl gallate as activity enhancer of antibiotics, drug sensitive K. pneumonia; type: cell-based, Klebsiella pneumonia; conditions: for MIC: Klebsiella pneumoniae; for MIC Antibiotic + ethyl gallate: combination with ethyl gallate; for Minimum Inhibitory Concentration (MIC): group C: antibiotic + Ethyl gallate 1000 μg/ml; for Fold decrease in antibiotic concentration: on addition of ethyl gallate
Method: as §1, §2

[4] = Solubility of the extracted compound; type: physicochemical; conditions: compound extracted from T. chebula
Method: Then column chromatography was performed on silica gel to extract the compound. 6 fractions for T. chebula plant were obtained by column chromatography. All fractions of T. chebula were subjected for their synergistic activity. The fraction showing synergistic activity was then characterized to know the physical properties of bioactive molecule and the molecular weight of bioactive molecule was determined by LCMS and the structure was elucidated by NMR.

[5] = tested on: P. aeruginosa Strain MTCC-471 (Drug sensitive or control); assay: MIC, ethyl gallate as activity enhancer of antibiotics, drug sensitive P. aeruginosa; type: cell-based, Pseudomonas aeruginosa; conditions: for MIC: Pseudomonas aeruginosa, MTCC471, agent alone (group A ethyl gallate alone, group B antibiotics alone), read-out: Minimum Inhibitory Concentration (MIC); for MIC / Minimum Inhibitory Concentration (MIC): strain MTCC-471; for MIC Antibiotic + ethyl gallate: combination with ethyl gallate; for Minimum Inhibitory Concentration (MIC): group C: antibiotic + Ethyl gallate 1000 μg/ml; for Fold decrease in antibiotic concentration: on addition of ethyl gallate
Method: as §1, §2

[6] = tested on: P. aeruginosa PS11 (Drug resistant); assay: MIC, ethyl gallate as activity enhancer of antibiotics, drug resistant P. aeruginosa; type: cell-based, Pseudomonas aeruginosa; conditions: for MIC: strain PS11; for MIC Antibiotic + ethyl gallate: combination with ethyl gallate; for Fold decrease in antibiotic concentration: on addition of ethyl gallate
Method: as §1
K. pneumonia isolate was collected from Gian Sagar medical college, Patiala and characterized in Immuno-parasitoloy Lab, Shoolini University, Solan for multidrug resistance. P. aeruginosa drug resistant strain was collected from Gian Sagar medical college, Patiala and characterized in Immunoparasitoloy Lab, Shoolini University, Solan.

[7] = Table 4 (K. pneumonia, both strains), agent alone, read-out: MIC
[8] = agent alone (group A ethyl gallate alone, group B antibiotics alone), strain 52145, read-out: Minimum Inhibitory Concentration (MIC)
[9] = Pseudomonas aeruginosa, agent alone (group A ethyl gallate alone, group B antibiotics alone), read-out: MIC
[10] = Resistant Strain, K. pneumonia 1740 knockout
[11] = Sensitive Strain, K. pneumonia 52145
[12] = Sensitive Strain, P. aeruginosa MTCC-471
[13] = Resistant Strain, P. aeruginosa PS11
[14] = group C: antibiotic + Ethyl gallate 1000 μg/ml

N=C(N)NCCC[C@H](NC(=O)[C@@H](N)Cc1ccccc1)C(=O)Nc1ccc2ccccc2c1 [PAβN, L-phenylalanyl-L-arginyl-b naphthylamide] (H-Phe-Arg-βNA)
potentiation of the activity of levofloxacin [1]: 8 fold

CCOC(=O)c1cc(O)c(O)c(O)c1 [Ethyl gallate, ethyl gallate]
MIC Ethyl gallate ([2]; Resistant Strain, K. pneumonia 1740 knockout, ethyl gallate alone): 2 mg/L (≈ 10.1 µM)
MIC [3, 7]: 2 mg/L
MIC [3, 8]: 2 mg/L
MIC Ethyl gallate ([3]; Sensitive Strain, K. pneumonia 52145, ethyl gallate alone): 2.000
solubility [4]: soluble in methanol and water
MIC [5]: 0.06 mg/L
MIC Ethyl gallate ([5]; Sensitive Strain, P. aeruginosa MTCC-471, ethyl gallate alone): 0.06 mg/L
MIC [6, 9]: 2 mg/L
MIC Ethyl gallate ([6]; Resistant Strain, P. aeruginosa PS11, ethyl gallate alone): 2 mg/L

O=C(O)c1cn(C2CC2)c2cc(N3CCNCC3)c(F)cc2c1=O [Ciprofloxacin]
MIC Antibiotic + ethyl gallate [2, 10]: 0.003 mg/L
MIC [2]: 0.003 mg/L
MIC [3, 8]: 0.06 mg/L
MIC Antibiotic Alone [3, 11]: 0.060
MIC Antibiotic + ethyl gallate [3, 11]: 0.003
Minimum Inhibitory Concentration (MIC) ([3]; strain 52145): 0.003 mg/L
MIC Antibiotic + ethyl gallate [5, 12]: 0.06 mg/L
Minimum Inhibitory Concentration (MIC) [5]: 0.060 mg/L
MIC [6, 9]: 2 mg/L
MIC Antibiotic Alone [6, 13]: 2 mg/L
MIC Antibiotic + ethyl gallate [6, 13]: 1 mg/L
MIC [6, 14]: 1.00 mg/L

CN(C)[C@@H]1C(O)=C(C(N)=O)C(=O)[C@@]2(O)C(O)=C3C(=O)c4c(O)cccc4[C@@](C)(O)[C@H]3C[C@@H]12 [Tetracycline]
MIC Antibiotic Alone [2, 10]: 2 mg/L (≈ 4.5 µM)
MIC Antibiotic + ethyl gallate [2, 10]: 0.5 mg/L
MIC [2]: 0.500 mg/L
Fold decrease in antibiotic concentration [2, 10]: 4 fold
MIC [3, 7]: 2 mg/L
MIC [3, 8]: 2 mg/L
MIC Antibiotic Alone [3, 11]: 2.000
MIC Antibiotic + ethyl gallate [3, 11]: 0.500
Minimum Inhibitory Concentration (MIC) ([3]; strain 52145): 0.500 mg/L
Fold decrease in antibiotic concentration [3, 11]: 4 fold
MIC [5]: 0.125 mg/L
MIC Antibiotic Alone [5, 12]: 0.125 mg/L
MIC Antibiotic + ethyl gallate [5, 12]: 0.06 mg/L
Minimum Inhibitory Concentration (MIC) [5]: 0.060 mg/L
Fold decrease in antibiotic concentration [5, 12]: 2 fold
MIC [6, 9]: 2 mg/L
MIC Antibiotic Alone [6, 13]: 2 mg/L
MIC Antibiotic + ethyl gallate [6, 13]: 0.5 mg/L
MIC [6, 14]: 0.50 mg/L
Fold decrease in antibiotic concentration [6, 13]: 4 fold

O=C(N[C@H](CO)[C@H](O)c1ccc([N+](=O)[O-])cc1)C(Cl)Cl [Chloramphenicol]
MIC Antibiotic Alone [2, 10]: 2 mg/L (≈ 6.19 µM)
MIC Antibiotic + ethyl gallate [2, 10]: 0.5 mg/L
MIC [2]: 0.500 mg/L
Fold decrease in antibiotic concentration [2, 10]: 4 fold
MIC [3, 7]: 2 mg/L
MIC [3, 8]: 2 mg/L
MIC Antibiotic Alone [3, 11]: 2.000
MIC Antibiotic + ethyl gallate [3, 11]: 1.000
Minimum Inhibitory Concentration (MIC) ([3]; strain 52145): 1.000 mg/L
Fold decrease in antibiotic concentration [3, 11]: 2 fold
MIC [5]: 1 mg/L
MIC Antibiotic Alone [5, 12]: 1 mg/L
MIC Antibiotic + ethyl gallate [5, 12]: 0.05 mg/L
Minimum Inhibitory Concentration (MIC) [5]: 0.050 mg/L
Fold decrease in antibiotic concentration [5, 12]: 20 fold
MIC [6, 9]: 2 mg/L
MIC Antibiotic Alone [6, 13]: 2 mg/L
MIC Antibiotic + ethyl gallate [6, 13]: 1 mg/L
MIC [6, 14]: 1.00 mg/L
Fold decrease in antibiotic concentration [6, 13]: 2 fold
